{"source": "ChEMBL document CHEMBL1153947", "about": "“Carbonic anhydrase inhibitors. Inhibition of cytosolic isoforms I, II, III, VII and XIII with less investigated inorganic anions” (Bioorg Med Chem Lett, 2009)", "key": {"Carbonic anhydrase 7": {"target": "Carbonic anhydrase 7 (Homo sapiens, UniProt P43166)", "sequence (P43166 whole entry)": "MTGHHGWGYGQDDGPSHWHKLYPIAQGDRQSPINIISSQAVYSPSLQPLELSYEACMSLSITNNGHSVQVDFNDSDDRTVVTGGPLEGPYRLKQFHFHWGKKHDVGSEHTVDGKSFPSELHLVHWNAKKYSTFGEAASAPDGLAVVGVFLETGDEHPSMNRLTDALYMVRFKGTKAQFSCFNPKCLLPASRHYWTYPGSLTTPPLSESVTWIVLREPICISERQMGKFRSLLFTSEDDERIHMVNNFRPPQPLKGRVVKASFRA", "test": "Inhibition of human recombinant carbonic anhydrase 7-catalyzed CO2 hydration by stopped flow assay"}, "Carbonic anhydrase 1": {"target": "Carbonic anhydrase 1 (Homo sapiens, UniProt P00915)", "sequence (P00915 whole entry)": "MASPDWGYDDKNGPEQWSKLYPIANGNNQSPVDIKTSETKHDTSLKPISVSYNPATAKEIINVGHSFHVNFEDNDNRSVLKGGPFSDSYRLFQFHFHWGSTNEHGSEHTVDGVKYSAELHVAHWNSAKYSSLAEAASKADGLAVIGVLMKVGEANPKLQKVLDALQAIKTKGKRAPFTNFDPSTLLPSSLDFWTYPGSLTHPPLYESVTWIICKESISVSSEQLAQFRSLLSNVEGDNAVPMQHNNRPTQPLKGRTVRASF", "test": "Inhibition of human recombinant carbonic anhydrase 1-catalyzed CO2 hydration by stopped flow assay"}, "Carbonic anhydrase 13": {"target": "Carbonic anhydrase 13 (Mus musculus, UniProt Q9D6N1)", "sequence (Q9D6N1 whole entry)": "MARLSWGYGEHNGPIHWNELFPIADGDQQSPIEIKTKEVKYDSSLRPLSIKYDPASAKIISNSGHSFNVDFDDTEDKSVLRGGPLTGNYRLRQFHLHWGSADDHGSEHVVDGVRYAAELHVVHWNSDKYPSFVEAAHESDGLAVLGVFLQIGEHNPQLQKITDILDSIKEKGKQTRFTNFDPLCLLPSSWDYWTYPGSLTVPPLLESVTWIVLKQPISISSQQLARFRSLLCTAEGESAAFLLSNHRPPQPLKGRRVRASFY", "test": "Inhibition of mouse recombinant carbonic anhydrase 13-catalyzed CO2 hydration by stopped flow assay"}, "Carbonic anhydrase 2": {"target": "Carbonic anhydrase 2 (Homo sapiens, UniProt P00918)", "test": "Inhibition of human recombinant carbonic anhydrase 2-catalyzed CO2 hydration by stopped flow assay"}}, "note": "pKi: −log10 of the molar value.", "data": [{"smiles": "CCN(CC)C(=S)S", "note": "[DITIOCARB SODIUM]", "values": [{"measurement": "pKi", "setting": "Carbonic anhydrase 7", "value": 2.83}, {"measurement": "pKi", "setting": "Carbonic anhydrase 1", "value": 6.10}, {"measurement": "pKi", "setting": "Carbonic anhydrase 13", "value": 4.25}]}, {"smiles": "S=C(S)S", "note": "[SODIUM CARBONOTRITHIOATE]", "values": [{"measurement": "pKi", "setting": "Carbonic anhydrase 7", "value": 1.44}, {"measurement": "pKi", "setting": "Carbonic anhydrase 1", "value": 5.06}, {"measurement": "pKi", "setting": "Carbonic anhydrase 13", "value": 3.37}]}, {"smiles": "O=S(=O)(O)NS(=O)(=O)O", "note": "[SODIUM IMINODISULFONATE]", "values": [{"measurement": "pKi", "setting": "Carbonic anhydrase 7", "value": 1.41}, {"measurement": "pKi", "setting": "Carbonic anhydrase 1", "value": 3.51}, {"measurement": "pKi", "setting": "Carbonic anhydrase 13", "value": 3.01}]}, {"smiles": "O=S(=O)(O)OOS(=O)(=O)O", "note": "[SODIUM PERSULFATE]", "values": [{"measurement": "pKi", "setting": "Carbonic anhydrase 7", "value": 2.51}, {"measurement": "pKi", "setting": "Carbonic anhydrase 13", "value": 2.37}]}, {"smiles": "O=P(O)(O)OP(=O)(O)O", "note": "[SODIUM PYROPHOSPHATE]", "values": [{"measurement": "pKi", "setting": "Carbonic anhydrase 7", "value": 3.06}, {"measurement": "pKi", "setting": "Carbonic anhydrase 1", "value": 1.59}, {"measurement": "pKi", "setting": "Carbonic anhydrase 13", "value": 3.14}]}, {"smiles": "O=S(=O)(O)OS(=O)(=O)O", "note": "[SODIUM PYROSULFATE]", "values": [{"measurement": "pKi", "setting": "Carbonic anhydrase 7", "value": 3.12}, {"measurement": "pKi", "setting": "Carbonic anhydrase 1", "value": 3.00}, {"measurement": "pKi", "setting": "Carbonic anhydrase 2", "value": 3.01}, {"measurement": "pKi", "setting": "Carbonic anhydrase 13", "value": 3.15}]}, {"smiles": "O=[Se](=O)(O)O", "note": "[SODIUM SELENATE]", "values": [{"measurement": "pKi", "setting": "Carbonic anhydrase 7", "value": 0.67}, {"measurement": "pKi", "setting": "Carbonic anhydrase 1", "value": 0.93}, {"measurement": "pKi", "setting": "Carbonic anhydrase 13", "value": 0.32}]}, {"smiles": "N#C[SeH]", "note": "[SODIUM SELENOCYANATE]", "values": [{"measurement": "pKi", "setting": "Carbonic anhydrase 7", "value": 2.96}, {"measurement": "pKi", "setting": "Carbonic anhydrase 1", "value": 4.07}, {"measurement": "pKi", "setting": "Carbonic anhydrase 13", "value": 1.58}]}, {"smiles": "O=[Te](=O)(O)O", "note": "[SODIUM TELLURATE]", "values": [{"measurement": "pKi", "setting": "Carbonic anhydrase 7", "value": 3.34}, {"measurement": "pKi", "setting": "Carbonic anhydrase 1", "value": 3.18}, {"measurement": "pKi", "setting": "Carbonic anhydrase 13", "value": 3.42}]}]}
